Laboratory results from US10450270B2, “Glyoxamide substituted pyrrolamide derivatives and the use thereof as medicaments for the treatment of hepatitis B” (Janssen Sciences Ireland UC, priority 2013, dated 2019).

What was measured:
HBV [1] = assay: Anti-HBV activity, HepG2.117 inducible HBV producing cell line (Tet-off), intracellular HBV DNA by realtime PCR; type: cell-based; conditions: Hepatitis B virus
[2] = Cytotoxicity in HepG2 cells, Resazurin viability assay; conditions: human
HBV [3] = assay: Anti-HBV activity, HepG2.2.15 stable transfected cell line, HBV DNA from secreted virions by realtime PCR; type: cell-based; conditions: Hepatitis B virus
[4] = HepG2.117, 72 h, read-out: HepG2 117 EC50 (μM)
[5] = HepG2.2.15, 144 h, read-out: HepG 2.2.15 EC50 (μM)
[6] = 72 h, HepG2.117 cells, 3 days of treatment, intracellular HBV DNA, read-out: HepG2 117 EC50
[7] = 144 h, HepG2.2.15 cells, 6 days of treatment, HBV DNA from secreted virions, read-out: HepG 2.2.15 EC50

SMILES	EC50 (HBV [1]; [4])	CC50 at 4 days ([2]; HepG2 cells)	melting point	EC50 (HBV [3]; [5])	EC50 (HBV [1]; [6])	EC50 (HBV [3]; [7])	CC50 at 4 days [2]
COC(=O)C(C)(C)NC(=O)C(=O)c1cc(C(=O)Nc2ccc(F)c(C)c2)n(C)c1 [Compound 7, methyl 2-(2-(5-(4-fluoro-3-methylphenylcarbamoyl)-1-methyl-1H-pyrrol-3-yl)-2-oxoacetamido)-2-methylpropanoate]	0.058 µM	> 25000 nM	161 °C	0.21 µM	–	–	–
CC[C@@H](C)NC(=O)C(=O)c1cc(C(=O)Nc2ccc(F)c(C)c2)n(C)c1 [Compound 1, (R)-4-(2-(sec-butylamino)-2-oxoacetyl)-N-(4-fluoro-3-methylphenyl)-1-methyl-1H-pyrrole-2-carboxamide]	–	> 25000 nM	136.5 °C	–	0.1 µM	0.014 µM	–
Cn1cc(C(=O)C(=O)NC(C)(C)C)cc1C(=O)Nc1ccc(F)c(F)c1 [Compound 10, 4-(2-(tert-butylamino)-2-oxoacetyl)-N-(3,4-difluorophenyl)-1-methyl-1H-pyrrole-2-carboxamide]	–	> 25000 nM	170.7 °C	–	0.042 µM	0.072 µM	–
Cc1cc(NC(=O)c2cc(C(=O)C(=O)N[C@H]3CCOC3)cn2C)ccc1F [Compound 6, (S)—N-(4-fluoro-3-methylphenyl)-1-methyl-4-(2-oxo-2-(tetrahydrofuran-3-ylamino)acetyl)-1H-pyrrole-2-carboxamide]	0.19 µM	> 25000 nM	155.7 °C	0.047 µM	–	–	–
Cc1c(C(=O)C(=O)N[C@H](C)C(F)(F)F)c(Cl)c(C(=O)Nc2ccc(F)c(C#N)c2)n1C [Compound 30, 3-chloro-N-(3-cyano-4-fluoro-phenyl)-1,5-dimethyl-4-[2-oxo-2-[[(1R)-2,2,2-trifluoro-1-methyl-ethyl]amino]acetyl]pyrrole-2-carboxamide]	–	> 25000 nM	–	–	0.003 µM	< 0.004 µM	–
Cn1cc(C(=O)C(=O)NC2(C)COC2)cc1C(=O)Nc1cccc(C(F)(F)F)c1 [Compound 13, 1-methyl-4-(2-(3-methyloxetan-3-ylamino)-2-oxoacetyl)-N-(3-(trifluoro-methyl)phenyl)-1H-pyrrole-2-carboxamide]	–	> 25000 nM	–	–	> 1 µM	0.033 µM	–
Cn1cc(C(=O)C(=O)NC(C)(C)C)c(Cl)c1C(=O)Nc1ccc(F)c(C#N)c1 [Compound 23, 4-[(tert-Butylamino)(oxo)acetyl]-3-chloro-N-(3-cyano-4-fluorophenyl)-1-methyl-1H-pyrrole-2-carboxamide]	–	> 25000 nM	–	–	0.008 µM	0.005 µM	–
Cn1cc(C(=O)C(=O)NC(C)(C)C)cc1C(=O)Nc1cccc(C(F)(F)F)c1 [Compound 12, 4-(2-(tert-butylamino)-2-oxoacetyl)-1-methyl-N-(3-(trifluoromethyl)phenyl)-1H-pyrrole-2-carboxamide]	0.74 µM	–	–	0.043 µM	–	–	> 25000 nM
C[C@@H](NC(=O)C(=O)c1c(Cl)c(C(=O)Nc2ccc(F)c(C#N)c2)n(C)c1C1CC1)C(F)(F)F [Compound 31, 3-chloro-N-(3-cyano-4-fluoro-phenyl)-5-cyclopropyl-1-methyl-4-[2-oxo-2-[[(1R)-2,2,2-trifluoro-1-methyl-ethyl]amino]acetyl]pyrrole-2-carboxamide]	–	> 25000 nM	–	–	0.019 µM	0.012 µM	–
Cn1cc(C(=O)C(=O)NC2(C)COC2)cc1C(=O)Nc1cc(F)c(F)c(Cl)c1 [Compound 17, N-(3-Chloro-4,5-difluorophenyl)-1-methyl-4-{[(3-methyloxetan-3-yl)-amino](oxo)acetyl}-1H-pyrrole-2-carboxamide]	–	> 25000 nM	–	–	0.57 µM	0.029 µM	–
Cc1c(C(=O)C(=O)N[C@H](C)C(F)(F)F)cc(C(=O)Nc2ccc(F)c(C#N)c2)n1C [Compound 28, N-(3-cyano-4-fluoro-phenyl)-1,5-dimethyl-4-[2-oxo-2-[[(1R)-2,2,2-trifluoro-1-methyl-ethyl]amino]acetyl]pyrrole-2-carboxamide]	–	> 25000 nM	–	–	0.019 µM	< 0.004 µM	–
C[C@@H](NC(=O)C(=O)c1cc(C(=O)Nc2cc(F)c(F)c(Cl)c2)n(C)c1)C(F)(F)F [Compound 18, N-(3-Chloro-4,5-difluorophenyl)-1-methyl-4-(oxo{[(1R)-2,2,2-trifluoro-1-methylethyl]amino}acetyl)-1H-pyrrole-2-carboxamide]	–	> 25000 nM	–	–	0.37 µM	0.054 µM	–
Cc1cc(NC(=O)c2cc(C(=O)C(=O)NC(C)(C)C)cn2C)ccc1F [Compound 3, 4-(2-(tert-butylamino)-2-oxoacetyl)-N-(4-fluoro-3-methylphenyl)-1-methyl-1H-pyrrole-2-carboxamide]	–	> 25000 nM	–	–	0.04 µM	0.015 µM	–
Cc1cc(NC(=O)c2cc(C(=O)C(=O)NC(C)C)cn2C)ccc1F [Compound 2, N-(4-fluoro-3-methylphenyl)-4-(2-(isopropylamino)-2-oxoacetyl)-1-methyl-1H-pyrrole-2-carboxamide]	0.75 µM	> 25000 nM	–	0.029 µM	–	–	–
Cn1cc(C(=O)C(=O)NC2(C)COC2)cc1C(=O)Nc1ccc(F)c(C#N)c1 [Compound 16, N-(3-Cyano-4-fluorophenyl)-1-methyl-4-{[(3-methyloxetan-3-yl)amino]-(oxo)acetyl}-1H-pyrrole-2-carboxamide]	–	> 25000 nM	–	–	0.04 µM	0.048 µM	–
Cc1c(C(=O)C(=O)NC(C)(C)C)c(Cl)c(C(=O)Nc2ccc(F)c(C#N)c2)n1C [Compound 32, 4-[2-(tert-butylamino)-2-oxo-acetyl]-3-chloro-N-(3-cyano-4-fluoro-phenyl)-1,5-dimethyl-pyrrole-2-carboxamide]	–	> 25000 nM	–	–	< 0.004 µM	< 0.004 µM	–
Cc1cc(NC(=O)c2cc(C(=O)C(=O)N[C@H](C)C(F)(F)F)cn2C)ccc1F [Compound 5, (R)—N-(4-fluoro-3-methylphenyl)-1-methyl-4-(2-oxo-2-(1,1,1-trifluoropropan-2-ylamino)acetyl)-1H-pyrrole-2-carboxamide]	–	> 25000 nM	156.9 °C	–	0.099 µM	0.056 µM	–
C[C@@H](NC(=O)C(=O)c1cn(C)c(C(=O)Nc2ccc(F)c(C#N)c2)c1Cl)C(F)(F)F [Compound 24, 3-chloro-N-(3-cyano-4-fluoro-phenyl)-1-methyl-4-[2-oxo-2-[[(1R)-2,2,2-trifluoro-1-methyl-ethyl]amino]acetyl]pyrrole-2-carboxamide]	–	> 25000 nM	–	–	0.024 µM	0.02 µM	–
Cc1c(C(=O)C(=O)NC(C)(C)C)c(C)n(C)c1C(=O)Nc1ccc(F)c(C#N)c1 [Compound 19, 4-[(tert-Butylamino)(oxo)acetyl]-N-(3-cyano-4-fluorophenyl)-1,3,5-trimethyl-1H-pyrrole-2-carboxamide]	–	> 100000 nM	–	–	0.002 µM	< 0.004 µM	–
Cn1cc(C(=O)C(=O)NC(C)(C)C)cc1C(=O)Nc1cc(F)c(F)c(Cl)c1 [Compound 14, 4-(2-(tert-butylamino)-2-oxoacetyl)-N-(3-chloro-4,5-difluorophenyl)-1-methyl-1H-pyrrole-2-carboxamide]	–	> 25000 nM	–	–	0.038 µM	0.03 µM	–
Cc1c(C(=O)C(=O)NC(C)(C)C)cn(C)c1C(=O)Nc1ccc(F)c(C#N)c1 [Compound 22, 4-[(tert-Butylamino)(oxo)acetyl]-N-(3-cyano-4-fluorophenyl)-1,3-dimethyl-1H-pyrrole-2-carboxamide]	–	> 25000 nM	–	–	0.008 µM	0.01 µM	–
Cc1c(C(=O)C(=O)NC(C)(C)C)c(C)n(C)c1C(=O)Nc1ccc(F)c(F)c1 [Compound 20, 4-[(tert-Butylamino)(oxo)acetyl]-N-(3,4-difluorophenyl)-1,3,5-trimethyl-1H-pyrrole-2-carboxamide]	–	> 25000 nM	–	–	0.002 µM	< 0.004 µM	–
Cc1cc(NC(=O)c2cc(C(=O)C(=O)N[C@H](C)CC#N)cn2C)ccc1F [Compound 9, 4-[{[(1R)-2-Cyano-1-methylethyl]amino}(oxo)acetyl]-N-(4-fluoro-3-methyl-phenyl)-1-methyl-1H-pyrrole-2-carboxamide]	–	> 25000 nM	–	–	0.2 µM	0.17 µM	–
Cn1cc(C(=O)C(=O)NC2(C)COC2)cc1C(=O)Nc1ccc(F)c(F)c1 [Compound 11, N-(3,4-difluorophenyl)-1-methyl-4-(2-(3-methyloxetan-3-ylamino)-2-oxoacetyl)-1H-pyrrole-2-carboxamide]	–	> 25000 nM	180.7 °C	–	0.096 µM	0.05 µM	–
Cc1cc(NC(=O)c2cc(C(=O)C(=O)NC3(C)COC3)cn2C)ccc1F [Compound 4, N-(4-fluoro-3-methylphenyl)-1-methyl-4-(2-(3-methyloxetan-3-ylamino)-2-oxoacetyl)-1H-pyrrole-2-carboxamide]	0.015 µM	> 25000 nM	145.1 °C	0.013 µM	–	–	–
